# Legend:
# [1] = tested on: retinal ganglion cells; assay: TUNEL assay of apoptotic cell death in retina; type: cell-based
# Method: Terminal deoxynucleotidyl transferase-mediated dUTP-biotin nick end labeling (TUNEL) is a common method for detecting fragmentation that results from apoptotic signaling cascades. Retinas were embedded, cryosectioned, and processed for the TUNEL assay following the protocol by Gavrieli et al. (1992). After 30 min. rehydration in 70% ethanol, 2×5 min. rinses in PBS and 1% Triton-X in 1% citrate buffer (pH 7.3), the slides were subjected to a final rinse in PBS. Slides were then incubated for 30 min. in the reaction buffer (30 mM Trizma-HCl, 140 mM Na^+ cacodylate, 1.0 mM CaCl2, 0.2% Triton X-100, pH 7.2). Positive controls were treated with DNAse I (Roche Diagnostics; Branford, Conn.; 10 U/ml) in the reaction buffer. Next, slides were treated for 1 hour with 0.03 units/pi terminal transferase and 4 μM biotin-16-dUTP (Roche Diagnostics). The reaction was terminated in 30 mM Na+ citrate, 300 mM NaCl and 0.2% Triton X-100 in PBS (5 min.) and rinsed in PBS (2×5 min), exposed to 1% bovine serum albumin in PBS for 20 min and rinsed. Apoptotic cells were visualized with a confocal microscope (Zeiss LSM510) and categorized by size. […] This was blocked by RuR and by the TRPV4 antagonist Compound 1.
# [2] = tested on: Müller cells; assay: Arachidonic acid-induced [Ca2+]i in Müller cells; type: cell-based; details: 10 μM, Müller cells
# Method: This response is blocked by Compound 1 (1 μM).
# [3] = tested on: retinal neurons (RGCs) and glia (Müller cells); assay: Hypotonic stimuli: cell swelling (change in cell area) and [Ca++]i; type: cell-based; details: osmolarity lowered from 300 mOsm to 190 mOsm
# Excerpt: FIG. 18A illustrates the effect of hypotonic stimuli on cell swelling as measured by change in cell area. Hypotonic stimuli were generated by replacing extracellular sodium levels to lower osmolarity from 300 mOsm to 190 mOsm.
# [4] = tested on: MB model of glaucoma; assay: IOP time course after a single eye drop in the MB model of glaucoma; type: in vivo, mouse
# Method: Specifically, microbeads (MBs) were injected into the anterior chamber of a mouse eye as described in Example 2 with PBS-injected eyes used as controls. Compound 1 (10 mg/kg body weight) (or PBS vehicle) was injected intraperitoneally (IP). […] IOP was measured in mice between 10:00 AM and 1:00 PM with the TonoLab rebound tonometer (Colonial Medical Supply, Franconia, NH/Tyolat, Helsinki, Finland). Mice were sedated with IP injection of Avertin with final amount calculated by weight (e.g., 0.5 ml for 21-24 g animals). Animals were placed on a jack stand platform and the tonolab was clamped on a ring stand and centered onto the mid-cornea. During measurements animal were neither restrained nor touched. Each eye was measured twenty consecutive times, the highest and lowest values were discarded and the values were averaged.
# FIG. 9 illustrates the short-term effects of a single dose of Compound 1 (eye drop) in the MB model of glaucoma. IOP was measured as described in Example 3 at the indicated time points after receiving a drop of Compound 1. Compound 1 reduced IOP beginning at 1 hour after dosing and continued through 6 hours after dosing.
# FIG. 10 illustrates a time course of Compounds 1, 2, 5 and Compound 2-HCl as well as a positive control compound, timolol, with regard to inhibition of IOP. The experiment was conducted as described in Example 9. Each of the TRPV4 antagonists reduced IOP with a similar time course. Specifically, Compounds 1, 2, 5 and Compound 2-HCl reduced IOP for at least 6 hours after dosing.
# FIG. 11 illustrates a time course of Compound 2-HCl activity. The experiment was conducted as described in Example 9. […] 2
# FIG. 12 illustrates a comparison of the time course of Compound 2-HCl and Compound 5. The experiment was conducted as described in Example 9.
# [5] = biological target: T1, TRPV4 (Homo sapiens, UniProt Q9HBA0); assay: Calcium imaging (fura-2) in human trabecular meshwork cells; type: cell-based; details: bath application 100 nM, human TM cells, room temperature
# T1 construct: endogenous in cells; host or cells: primary human trabecular meshwork cells from trabeculectomy tissue
# T1 sequence (Q9HBA0 whole entry): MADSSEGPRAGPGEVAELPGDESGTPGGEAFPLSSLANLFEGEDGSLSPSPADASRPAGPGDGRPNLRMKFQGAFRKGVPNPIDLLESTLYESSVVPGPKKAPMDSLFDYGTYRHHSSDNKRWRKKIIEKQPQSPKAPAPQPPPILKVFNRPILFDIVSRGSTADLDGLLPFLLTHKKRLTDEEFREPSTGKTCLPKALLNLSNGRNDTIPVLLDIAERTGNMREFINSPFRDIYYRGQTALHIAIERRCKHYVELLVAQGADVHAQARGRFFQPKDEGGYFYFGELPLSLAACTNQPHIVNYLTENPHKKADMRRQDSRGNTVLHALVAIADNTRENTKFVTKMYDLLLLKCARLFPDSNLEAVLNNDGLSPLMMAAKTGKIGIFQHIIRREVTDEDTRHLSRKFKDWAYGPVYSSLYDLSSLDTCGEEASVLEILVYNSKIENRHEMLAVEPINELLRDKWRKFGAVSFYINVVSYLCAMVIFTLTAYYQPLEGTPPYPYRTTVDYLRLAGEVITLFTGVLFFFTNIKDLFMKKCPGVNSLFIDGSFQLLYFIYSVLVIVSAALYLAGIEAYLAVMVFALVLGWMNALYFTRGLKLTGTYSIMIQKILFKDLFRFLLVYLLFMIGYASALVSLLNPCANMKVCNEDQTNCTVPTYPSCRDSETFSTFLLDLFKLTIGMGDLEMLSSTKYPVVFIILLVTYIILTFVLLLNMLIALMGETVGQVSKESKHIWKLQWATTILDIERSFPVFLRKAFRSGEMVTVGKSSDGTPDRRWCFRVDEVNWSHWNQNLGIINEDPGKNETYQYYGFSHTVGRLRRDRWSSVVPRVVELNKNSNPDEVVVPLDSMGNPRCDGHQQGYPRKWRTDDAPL
# Method: Pieces of tissue were isolated from a trabeculectomy. Trabecular meshwork cells (TM) were kept in cold L15 medium and then loaded with Fura-2 (10 μm) for 1 hour. Fibroblast-shaped cells were imaged from a TM chunk (˜500 μm×500 μm) with a 40× water immersion objective. The sampling rate was at 6 second intervals. Krebs Ringer Bicarbonate Recording buffer (7.4, 284 mOsm) was prepared as reported by Anthony et al., 1998, IOVS; Prostaglandin F2α receptors in the human trabecular meshwork.
# Calcium imaging was performed on TM cells isolated from human patients. In brief, dissociated human TM cells embedded within the tissue were dissociated and plated on concanavalin A-coated (0.2 mg/ml; Sigma) coverslips, loaded with fura-2 AM ([…]; Invitrogen Life Technologies) for 15 min-1 hour and washed for 10 min in dye-free L-15 medium. […] Fluorescence emission was high-pass filtered at 510 nm and captured with cooled digital CCD cameras (HQ2, Photometrics). […] Fluorescence imaging was performed on regions of interest (ROIs) encompassing the TM cell somata, typically at 3×3 binning. Background fluorescence was measured in similarly sized ROIs in neighboring areas devoid of cells. After sequential image acquisition (0.167-0.5 Hz) of cell fluorescence at 340/380 nm, the background was subtracted. […]
# [6] = tested on: retinal ganglion cells; assay: In vivo intraocular injection of TRPV4 agonist GSK, NeuN+ RGC count; details: 100-300 nM injected intraocularly, retinas isolated after 48 hours
# Method: In this experiment, GSK (100-300 nM) was injected intraocularly with a Hamilton syringe. Retinas were isolated after 48 hours, fixed and labeled with the RGC marker antibody NeuN. NeuN-immunopositive somata in the ganglion cell layer, shown in the panel on the right, were counted. The bar graph represents quantification of NeuN^+ cells in the indicated experimental groups.
# [7] = biological target: T2, TRPV4 (Mus musculus, UniProt Q9EPK8); assay: TRPV4 agonist GSK-evoked [Ca++]i in retinal Müller glial cells; type: cell-based; design: endogenous in cells; host or cells: retinal Müller glial cells
# T2 sequence (Q9EPK8 whole entry): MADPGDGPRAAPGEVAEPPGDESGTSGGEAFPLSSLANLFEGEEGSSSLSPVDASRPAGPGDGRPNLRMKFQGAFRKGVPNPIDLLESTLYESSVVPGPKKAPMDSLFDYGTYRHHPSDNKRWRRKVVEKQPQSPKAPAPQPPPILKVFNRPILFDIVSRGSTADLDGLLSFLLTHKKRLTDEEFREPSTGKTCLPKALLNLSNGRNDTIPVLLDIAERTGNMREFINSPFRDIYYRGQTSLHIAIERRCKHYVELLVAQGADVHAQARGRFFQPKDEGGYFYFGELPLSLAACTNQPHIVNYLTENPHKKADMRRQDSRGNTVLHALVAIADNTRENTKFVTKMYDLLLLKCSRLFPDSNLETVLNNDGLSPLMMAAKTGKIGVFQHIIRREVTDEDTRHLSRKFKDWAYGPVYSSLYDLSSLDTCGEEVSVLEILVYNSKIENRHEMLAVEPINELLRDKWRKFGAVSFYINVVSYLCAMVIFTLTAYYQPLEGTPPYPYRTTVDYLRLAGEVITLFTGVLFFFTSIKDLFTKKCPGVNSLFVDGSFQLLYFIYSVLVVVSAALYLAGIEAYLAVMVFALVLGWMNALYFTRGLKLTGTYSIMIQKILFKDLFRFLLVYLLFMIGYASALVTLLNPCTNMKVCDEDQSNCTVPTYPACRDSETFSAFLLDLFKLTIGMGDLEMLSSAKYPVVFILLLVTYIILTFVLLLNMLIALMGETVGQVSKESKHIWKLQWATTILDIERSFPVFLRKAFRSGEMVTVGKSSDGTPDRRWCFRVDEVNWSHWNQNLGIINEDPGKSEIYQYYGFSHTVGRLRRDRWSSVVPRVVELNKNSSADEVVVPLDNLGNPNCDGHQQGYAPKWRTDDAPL
# [8] = biological target: T2, TRPV4; assay: AGB cation influx into retinal cells (anti-AGB antibody); type: cell-based; design: these two cell types express TRPV4 channels in the mouse retina; from tissue; host or cells: mouse retina; details: mouse retina
# Method: FIG. 16 illustrates the effect of the TRPV4 agonist GSK on cation influx into mouse retinal cells of the mouse retina. The influx was determined using the anti-AGB antibody, as described by Marc RE (J Comp Neurol 407(1): 47-64, 1999). AGB is a membrane permeant cation that can flow through most known cation channels. Using an anti-AGB antibody, it can be determined where the cation flux occurs and, therefore, which cells are activated.
smiles,measurement,setting,value
N.N.N.N.N.N.N.N.N.N.N.N.N.N.[Cl-].[Cl-].[Cl-].[Cl-].[Cl-].[Cl-].[O-2].[O-2].[Ru+3].[Ru+3].[Ru+4] [Ruthenium Red],apoptotic cell death (TUNEL) induced by hypotonic swelling,"[1]; 190 mOsm saline, Compound 1 1 uM, RuR 10 μM",block apoptotic cell death
same,apoptotic cell death (TUNEL) induced by the TRPV4 agonist GSK,"[1]; GSK 100 nM, Compound 1 1 uM, RuR 10 μM",block apoptotic cell death
"CCCCC/C=C\C/C=C\C/C=C\C/C=C\CCCC(=O)O [arachidonic acid, reference compound]",[Ca2+]i response,[2],increase in [Ca2+]i
"CC(=O)OCOC(=O)CN(CC(=O)OCOC(C)=O)c1ccccc1OCCOc1ccccc1N(CC(=O)OCOC(C)=O)CC(=O)OCOC(C)=O [BAPTA-AM, reference compound]",cell swelling (change in cell area),[3],significantly reduced
"Cc1c(C(=O)Nc2cccc(C(=O)OC(C)C)c2)cc(-c2ccccc2)n1CCCN1CCOCC1.Cl [Compound 2-HCl, iso-propyl 3-(2-methyl-1-(3-morpholinopropyl)-5-phenyl-1H-pyrrole-3-carboxamido)benzoate hydrochloride]",time of maximal inhibition of IOP after dosing,[4]; single dose eye drop,6 h
same,time until IOP reached pre-dose levels,"[4]; single dose eye drop, post-dosing",33 h
"CC(C)(C)NC[C@H](O)COc1nsnc1N1CCOCC1 [timolol, reference compound]","inhibition of IOP, curve relative to the exemplary TRPV4 antagonists","[4]; positive control, eye drop",left-shifted dose-response curve
"CC(C)C[C@H](NC(=O)c1cc2ccccc2s1)C(=O)N1CCN(C(=O)[C@H](CO)NS(=O)(=O)c2ccc(Cl)cc2Cl)CC1 [GSK1016790A, reference compound]",340/380 fluorescence ratio (intracellular calcium concentration [Ca++]i),[5],increased 340/380 fluorescence ratio
same,"number of retinal ganglion cells (NeuN+ somata), agonist effect",[6],substantially reduces the number of retinal ganglion cells
same,"death of retinal ganglion cells (increased TUNEL staining), agonist effect",[1]; 100 nM,induced death of retinal ganglion cells
same,"intracellular calcium concentration [Ca++]i, agonist effect",[7],evokes sustained increases in intracellular calcium concentration
same,"number of AGB+ cells (cation influx), agonist effect",[8],increased the number of AGB^+ retinal ganglion cells and Müller glial cells

# — US20130303539A1, “COMPOUNDS WITH TRPV4 ACTIVITY, COMPOSITIONS AND ASSOCIATED METHODS THEREOF” (priority 2012, published 2013)
